# In BindingDB's records for doi:10.7270/Q2B56H72 (Nmmlsc, 2011):
# Molecular target: T1, Beta-adrenergic receptor kinase 1 (Homo sapiens, UniProt P25098)
# T1 sequence (P25098 whole entry): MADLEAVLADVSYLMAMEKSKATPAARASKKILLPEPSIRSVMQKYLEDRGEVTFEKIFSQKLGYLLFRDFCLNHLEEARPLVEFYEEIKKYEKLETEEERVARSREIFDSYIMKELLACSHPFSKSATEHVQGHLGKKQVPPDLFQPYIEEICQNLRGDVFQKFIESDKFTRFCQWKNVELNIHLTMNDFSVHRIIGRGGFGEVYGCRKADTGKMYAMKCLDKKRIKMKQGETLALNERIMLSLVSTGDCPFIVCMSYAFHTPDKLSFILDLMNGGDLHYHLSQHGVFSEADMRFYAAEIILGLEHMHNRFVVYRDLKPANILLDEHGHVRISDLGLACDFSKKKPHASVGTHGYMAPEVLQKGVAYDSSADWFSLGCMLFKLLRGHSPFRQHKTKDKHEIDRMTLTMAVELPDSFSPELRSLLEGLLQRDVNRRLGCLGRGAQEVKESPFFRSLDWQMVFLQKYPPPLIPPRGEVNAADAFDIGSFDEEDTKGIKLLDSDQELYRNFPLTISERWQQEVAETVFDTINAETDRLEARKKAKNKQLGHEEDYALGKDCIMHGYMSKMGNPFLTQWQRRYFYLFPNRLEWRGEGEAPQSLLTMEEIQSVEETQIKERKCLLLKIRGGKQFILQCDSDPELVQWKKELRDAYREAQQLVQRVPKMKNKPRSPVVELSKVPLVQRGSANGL
# Assay: aptamer displacement from bead-bound GRK2 – biochemical, cherry pick 1, bead flow cytometry, dose response (AID 504500)
structure (smiles),measurement,value
C=c1[nH]n(-c2cccc(C(=O)O)c2)c(=O)c1=CC=Cc1ccco1 [SMR000113614],EC50,14.8 µM
